Assays:
[1] = tested on: RBCs from donors with homozygous SCD; assay: Oxygen-independent sickle inhibition in SS blood suspensions under anoxia (100% nitrogen); type: cell-based, human; conditions: Homo sapiens, 2 mM, 4 biological replicates, read-out: % Sickling Inhibition (Anoxia)
Outline: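 After room-air re-oxygenation for 15 min to reverse sickling, SS blood suspensions were held under 100% nitrogen for 1 h (screening) or up to 2.5 h (time course), with aliquots fixed at set intervals. Sickled versus non-sickled cells were counted by bright-field microscopy to calculate sickle inhibition.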

Hb [2] = molecular target: T1, Hb (Homo sapiens, UniProt P69905); assay: Oxygen equilibrium curve (OEC) studies with normal whole blood; type: cell-based; set-up: Hemoglobin modification, studies using non-sickling AA blood; from tissue; host or cells: non-sickling (AA) human blood, red blood cells; conditions: normal whole blood, 0.5, 1, 2 mM
T1 sequence (P69905 2-142 limits assumed): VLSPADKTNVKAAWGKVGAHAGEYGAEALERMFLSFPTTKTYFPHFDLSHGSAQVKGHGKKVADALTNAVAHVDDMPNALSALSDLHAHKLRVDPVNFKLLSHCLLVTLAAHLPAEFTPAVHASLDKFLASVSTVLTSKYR
T1 sequence (P68871 2-147 partner limits assumed): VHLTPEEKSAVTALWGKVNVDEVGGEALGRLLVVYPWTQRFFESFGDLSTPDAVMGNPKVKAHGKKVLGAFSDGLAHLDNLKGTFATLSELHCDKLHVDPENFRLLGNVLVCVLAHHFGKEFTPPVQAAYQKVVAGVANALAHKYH
Outline: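 Whole human blood at 30% hematocrit incubated with compound at 0.5, 1.0 or 2.0 mM (DMSO) or without. After equilibration, pO2 and sO2 measured by automated blood gas analyser across saturation levels, and the oxygen equilibrium curve fitted by nonlinear regression.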

[3] = Single-dose oral pharmacokinetics in rats; type: in vivo, Sprague Dawley rats; conditions: oral administration, data not shown
Experimental: Single doses of each compound were administered as oral suspensions by gavage in 0.5% carboxy methylcellulose at 100 mg/kg. Whole blood levels were collected for at least 72 hours after dose administration. Bioanalyses were performed with liquid chromatography-tandem mass spectrometry […].
Single-dose pharmacokinetics (PK) in male Sprague Dawley (SD) rats (n=4) were assessed for each compound, and the maximum or peak whole blood concentration and area under the curve are shown in Table 5.

Hb [4] = molecular target: T1, Hb; assay: Drug partitioning studies, fixed and unfixed Hb adducts in non-sickling AA blood; type: cell-based; set-up: Hemoglobin modification, studies using non-sickling AA blood; from tissue; host or cells: non-sickling (AA) human blood, red blood cells; conditions: 2 mM
Outline: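 Non-sickling blood was incubated with test molecules and lysed either in water (unfixed) or in 50 mM sodium borohydride (fixed). Hb adducts were quantified by cation-exchange HPLC as a fraction of total Hb. The partitioning ratio is fixed over unfixed modification and reflects intracellular Hb binding after RBC membrane permeation.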

sickle Hb = molecular target: T2, sickle Hb (Homo sapiens, UniProt P69905); assay: Oxygen equilibrium (P50 shift) of lysates from treated sickle blood; type: cell-based; conditions: 0.5, 1 and 2 mM, SS blood
T2 construct: Blood suspensions from subjects with homozygous SCD; from tissue; host or cells: blood suspensions (20% hematocrit) from donors with homozygous SCD; lysates of the treated red cells
T2 sequence (P69905 2-142 limits assumed): as the sequence (P69905 2-142 limits assumed) above
Experimental: Blood suspensions from subjects with homozygous SCD (resuspended in Hemox™ buffer to a final hematocrit 20%) were incubated under air in the absence or presence of the compounds (0.5 mM, 1 mM and 2 mM) at 37° C. for 1 h to ensure that binding had attained equilibrium. The suspensions were then incubated under hypoxic conditions (2.5% oxygen/97.5% nitrogen) at 37° C. for 1 h. Aliquot samples were fixed with 2% glutaraldehyde solution without exposure to air, and then subjected to microscopic morphological analysis of bright field images (at 40× magnification) of single layer cells on an Olympus BX40 microscope fitted with an Infinity Lite B camera (Olympus), and the coupled Image Capture software. The residual samples were washed in phosphate-buffer saline, and hemolyzed in hypotonic lysis buffer for subsequent Hb-modification and oxygen equilibrium analyses.
For oxygen equilibrium studies, approximately 100 μL aliquot samples from the above clarified lysate were added to 4 mL of 0.1M potassium phosphate buffer, pH 7.0, in cuvettes and subjected to hemoximetry analysis using a Hemox™ Analyzer (TCS Scientific Corp.) to assess P50 shifts. Degree of P50 shift (ΔP50) was expressed as percentage fractions of control DMSO-treated samples.

Hb [5] = molecular target: T1, Hb; assay: Affinity (KD) for Hb; type: binding
[6] = tested on: RBCs from donors with homozygous SCD; assay: Sickle inhibition in SS blood suspensions under hypoxia (2.5% oxygen); type: cell-based; conditions: Homo sapiens, 2 mM, 4 biological replicates, read-out: % Sickling Inhibition (Hypoxia)
Experimental: All compounds (Comp 1-13) and comparator molecules (VZHE-039, PP-14, INN-310, and Voxelotor) were evaluated following established procedures. Blood samples from individual donors with homozygous SCD (obtained with informed consent) were diluted using Hemox buffer solution with the addition of glucose (10 mM) and BSA (0.2%) to adjust hematocrit of the blood suspensions to 20%, which standardizes the procedure to normalize the ratio of RBCs to drug, for assay consistency and reproducibility. Briefly, blood suspensions were incubated under room air in the presence of various concentrations of test compounds (0-2 mM) at 37° C. for 1 hour in 96-well round bottom plates. Subsequently, the suspensions were incubated with a hypoxic gas mixture (2.5% Oxygen gas/balance Nitrogen gas) at 37° C. for up to 2 hours prior to fixation with 2% glutaraldehyde solution without exposure to air. The fixated blood aliquots were evaluated by microscopic morphological analysis (image analysis on Image J software) to identify the proportion of sickled and non-sickled RBCs, and sickle inhibition calculated based on the % change from negative control (DMSO).

## COC(=O)c1ccc(COc2cccc(O)c2C=O)cn1 [PP14, Methyl 5-((2-formyl-3-hydroxyphenoxy)methyl)picolinate]
[1]
  inhibition at 2000 µM: 80.5 ± 17.4%
Hb [2]
  effect on Hb oxygen binding property (OEC): most significant activities
[3]
  metabolism upon oral administration: rapidly metabolizes into its carboxylic acid metabolite
Hb [4]; 6 biological replicates
  Fixed Adducts (%): 96.1 ± 1.1%
  Unfixed Adduct (%): 91.8 ± 11.6%
Hb [4]; fixed relative to unfixed adducts
  Partitioning Ratio (%): 102.2 ± 8.0%
Sickle Hb
  increase of Hb affinity for oxygen in sickle blood (in words): only marginally increasing Hb affinity for oxygen
Hb [5]
  Kd: 150 µM
[6]
  inhibition at 2000 µM: 83.1 ± 6.9%
